Data from patent US20110039762A1, “TARGETED ANTIMICROBIAL MOIETIES” (C3 JIAN, INC., priority 2009, published 2011).
“Also recorded” adds a separate entry of the source.

system: microorganisms (e.g., bacteria, yeasts, fungi); test: Targeting peptide binding to target microorganisms (Table 3); details: microorganism the targeting peptide binds; binding in aqueous buffers varied by peptide solubility, preferably 1x PBS

Substance | Target(s)
1T-222 (RIEASLISAIMFSMFNAIVKFLQK; Peptide with targeting and/or antimicrobial activity) [Peptide 1T-222] | F. nucleatum; also recorded: S. sanguinis
1T-100 (LDPLEPRIAPPGDRSHQGAPACHRDPLRGRSARDAER; Peptide with targeting and/or antimicrobial activity) [Peptide 1T-100] | S. gordonii; also recorded: S. mitis; also recorded: S. mutans
1T-72 (EPTDGVACKER; Peptide with targeting and/or antimicrobial activity) [Peptide 1T-72] | P. aeruginosa
1T-124 (LFDERNKIA; Peptide with targeting and/or antimicrobial activity) [Peptide 1T-124] | S. mitis; also recorded: S. mutans; also recorded: S. oralis
1T-13 (FRSPCINNNSLQPPGVYPAR; Peptide with targeting and/or antimicrobial activity) [Peptide 1T-13] | S. aureus; also recorded: S. epidermidis; also recorded: P. aeruginosa
PF-044 (KLKKYIHKPD; Peptide with targeting and/or antimicrobial activity) | S. epidermidis and M. luteus and MRSA and C. jeikeium
1T-69 (ILSQEADRKKLF; Peptide with targeting and/or antimicrobial activity) [Peptide 1T-69] | S. mutans; also recorded: P. aeruginosa
1T-16 (IDMR; Peptide with targeting and/or antimicrobial activity) [Peptide 1T-16] | P. aeruginosa
1T-60 (YLTSLGLDAAEQAQGLLTILKG; Peptide with targeting and/or antimicrobial activity) [Peptide 1T-60] | S. aureus; also recorded: S. epidermidis; also recorded: C. jeikeium; also recorded: C. striatum; also recorded: P. aeruginosa
1T-46 (FSFKQRVMFRKEVERLR; Peptide with targeting and/or antimicrobial activity) [Peptide 1T-46] | S. aureus; also recorded: S. epidermidis; also recorded: C. jeikeium; also recorded: C. xerosis; also recorded: C. striatum; also recorded: P. aeruginosa
1T-193 (LMIFDKHANLKYKYGNRSFGVEAIM; Peptide with targeting and/or antimicrobial activity) [Peptide 1T-193] | S. sanguinis
1T-198 (MPVSKKRYMLSSAYATALGICYGQVATDEKESEITAIPDLLDYLSVEEYLL; Peptide with targeting and/or antimicrobial activity) [Peptide 1T-198] | P. gingivalis; also recorded: S. epidermidis; also recorded: S. gordonii; also recorded: S. mitis; also recorded: S. mutans; also recorded: S. oralis; also recorded: S. sanguinis
1T-159 (IFSLHHFALICSEMGTFAVSKRAKYKWEVL; Peptide with targeting and/or antimicrobial activity) [Peptide 1T-159] | P. gingivalis
1T-37 (YIVGALVILAVAGLIYSMLRKA; Peptide with targeting and/or antimicrobial activity) [Peptide 1T-37] | S. mutans; also recorded: S. aereus; also recorded: S. epidermidis; also recorded: C. jeikeium; also recorded: C. xerosis; also recorded: C. striatum; also recorded: P. aeruginosa
1T-27 (ALFVSLEQFLVVVAKSVFALCHSGTLS; Peptide with targeting and/or antimicrobial activity) [Peptide 1T-27] | S. mutans; also recorded: S. aureus; also recorded: S. epidermidis; also recorded: C. jeikeium; also recorded: C. xerosis; also recorded: C. striatum; also recorded: P. aeruginosa
1T-273 (YNEPNYKWLESYKIYKQRCEDRTGMYYTEET; Peptide with targeting and/or antimicrobial activity) [Peptide 1T-273] | F. nucleatum; also recorded: P. gingivalis; also recorded: T. denticola; also recorded: S. mitis; also recorded: S. mutans; also recorded: S. oralis
1T-117 (GPGVVGPAPFSRLPAHALNL; Peptide with targeting and/or antimicrobial activity) [Peptide 1T-117] | S. mutans

same assay, conditions: microorganism(s) the targeting peptide binds; binding in aqueous buffers depending on peptide solubility, preferably 1x PBS

Substance | Target(s)
PF-291 (DVDGAIESEL; Peptide with targeting and/or antimicrobial activity) | S. mutans; also recorded: E. coli
PF-384 (HISKERFEAY; Peptide with targeting and/or antimicrobial activity) | E. faecalis; also recorded: C. jeikeium; also recorded: C. jejuni
PF-223 (VKFCIECQTKLERKRR; Peptide with targeting and/or antimicrobial activity) | S. epidermidis; also recorded: M. luteus; also recorded: A. baumannii
PF-231 (AVRDFKKSVREEDEAASLNSPRTIDAQVKTSESTSVKS; Peptide with targeting and/or antimicrobial activity) | S. mutans
PF-146 (GCGKRRIITKSASRDTR; Peptide with targeting and/or antimicrobial activity) | S. epidermidis and M. luteus and P. aeruginosa and C. albicans and MRSA and C. jeikeium
PF-309 (GIPGMTAAPAEENEQEENADEE; Peptide with targeting and/or antimicrobial activity) | S. mutans; also recorded: E. coli
PF-216 (ESVDKITEALEEDGFPAKVQ; Peptide with targeting and/or antimicrobial activity) | S. mutans; also recorded: E. coli
PF-304 (LVKDTSDIKNDLNNIEIVTSKNSNDIAKLKSVK; Peptide with targeting and/or antimicrobial activity) | S. mutans
PF-132 (RPGDGAAEQGRSR; Peptide with targeting and/or antimicrobial activity) | S. epidermidis; also recorded: C. jeikeium
PF-338 (KGTSCPDQLSKAIRQSI; Peptide with targeting and/or antimicrobial activity) | S. mutans
PF-317 (LILVSDI; Peptide with targeting and/or antimicrobial activity) | S. mutans
PF-253 (VRDDDS; Peptide with targeting and/or antimicrobial activity) | S. epidermidis; also recorded: M. luteus
PF-163 (TSWLRAAERQEIGEPTKTFGEKTTSL; Peptide with targeting and/or antimicrobial activity) | S. epidermidis
PF-325 (LTIDEKLRNHR; Peptide with targeting and/or antimicrobial activity) | S. mutans; also recorded: E. coli
PF-323 (ARESIEKSHVPVDATIVGVVDSFEVFDE; Peptide with targeting and/or antimicrobial activity) | S. mutans
PF-334 (QQYLILDRM; Peptide with targeting and/or antimicrobial activity) | S. epidermidis; also recorded: C. difficile
PF-158 (VRLESRPADLPE; Peptide with targeting and/or antimicrobial activity) | S. epidermidis
PF-218 (SETPEKPVGTFFYSIYYKIIL; Peptide with targeting and/or antimicrobial activity) | S. epidermidis; also recorded: M. luteus; also recorded: P. aeruginosa; also recorded: A. baumannii
PF-210 (EREDGCDAMPLP; Peptide with targeting and/or antimicrobial activity) | S. epidermidis and P. aeruginosa and C. albicans and MRSA and E. faecalis and C. jeikeium and C. jejuni
PF-159 (TMAFVEKAQLRVPVGDDLPV; Peptide with targeting and/or antimicrobial activity) | S. epidermidis
PF-242 (KLFEDPLIKSKAVENFQTTWHEQCLAKELAKNM; Peptide with targeting and/or antimicrobial activity) | S. mutans; also recorded: E. coli
PF-201 (GCRPASLSDADPDGR; Peptide with targeting and/or antimicrobial activity) | S. epidermidis; also recorded: M. luteus; also recorded: E. coli; also recorded: C. albicans; also recorded: E. faecalis; also recorded: C. jeikeium; also recorded: C. jejuni

same assay, conditions: peptide binding in aqueous buffers varied by peptide solubility; preferably 1x PBS

Substance | Target(s) (microorganisms bound by the targeting peptide)
PF-673 (VRRLRM; Peptide with targeting and/or antimicrobial activity) | S. mutans; also recorded: E. coli
PF-678 (RDRRWTRRDMYDWLESARV; Peptide with targeting and/or antimicrobial activity) | Mycobacteria spp
PF-701 (PRGAQSGHG; Peptide with targeting and/or antimicrobial activity) | S. mutans
PF-C050 (QGLARPVLRRIPL; Peptide with targeting and/or antimicrobial activity) | A. naeslundii; also recorded: S. mutans
PF-781 (PLVVVNHRRAERSRG; Peptide with targeting and/or antimicrobial activity) | Mycobacteria spp.
PF-768 (GFRGGKRGGARG; Peptide with targeting and/or antimicrobial activity) | S. epidermidis; also recorded: S. pneumoniae; also recorded: E. faecalis; also recorded: C. jeikeium
PF-712 (QIYRHVHKVQAKSANLRLY; Peptide with targeting and/or antimicrobial activity) | S. mutans; also recorded: E. coli
PF-714 (FVVTQRMLRMYKK; Peptide with targeting and/or antimicrobial activity) | L. pneumophila
PF-799 (YTHYNTALSYALLLTNKSSVP; Peptide with targeting and/or antimicrobial activity) | S. mutans
